Here are results for 9 compounds from US11819476B2, “Rapamycin analogs and uses thereof” (Janssen Pharmaceutica NV, priority 2019, dated 2023).

One test relates to pS6K1 in MCF7. Description: AlphaLISA Ultra pS6K1 Assay. The test is classed as cell-based. Particulars: Homo sapiens, 1.5 h; MCF7 cells, 90 min incubation. As to the method:
Example 74: AlphaLISA Ultra pS6K1 Assay
Assay Protocol: • 1. Seed MCF-7 cells in Corning 3701 plate and incubate for 20˜24 hour. 12,000˜16,000 cells will be seeded in 36 μL medium per well. • 2. Change the culture medium with fresh medium and incubate for another 2 hours. • 3. Add 12 μL (4×) compounds into the cell plate by HAMILTON. Final DMSO concentration is 0.5%. Incubate for 90 minutes. • 4. Aspirate 38 μL by HAMILTON, 10 μL rest per well. • 5. Add 10 μL 2× lysis buffer using HAMILTON; total volume in wells is 20 μL. Allow cells to shake for 30 min. Cover plate by plastic foil and store plate at −80° C. up to analysis. • 6. Thaw cell lysate at RT and transfer 10 μL lysate to assay plate (Optiplate-384). • 7. Add 5 μL acceptor beads into assay plate and incubation for 2 hours • 8. Add 5 μL donor beads and incubation for 2 hours • 9. Count the plate by EnSpire Multimode Plate Reader
(In Alpha technology, singlet oxygen from a donor bead excites a nearby acceptor bead.)
`CO[C@@H]1C[C@H](C[C@@H](C)[C@@H]2CC(=O)[C@H](C)/C=C(\C)[C@@H](O)[C@@H](OC)C(=O)[C@H](C)C[C@H](C)/C=C/C=C/C=C(\C)C(OCCOC3CCOCC3)C[C@@H]3CC[C@@H](C)[C@@](O)(O3)C(=O)C(=O)N3CCCC[C@H]3C(=O)O2)CC[C@H]1OCCO` (stereo partly drawn) [Example I-13, (25E,27E,29E,30E,36R,37S,38R,39R,42S,44S,47S,48R,49R,58R)-48,58-dihydroxy-47-[(1R)-2-[(1S,3R,4R)-4-(2-hydroxyethoxy)-3-methoxy-cyclohexyl]-1-methyl-ethyl]-49-methoxy-36,37,38,39,50,51-hexamethyl-46-(2-tetrahydropyran-4-yloxyethoxy)-69,70-dioxa-59-azatricyclohexatriaconta-25,27,29(50),30(51)-tetraene-52,53,54,55,56-pentone] returned an IC50 of 1 to 10 nM.
The same measure, in the same setting: under `COCCS(=O)(=O)CCOC1C[C@@H]2CC[C@@H](C)[C@@](O)(O2)C(=O)C(=O)N2CCCC[C@H]2C(=O)O[C@H]([C@H](C)C[C@@H]2CC[C@@H](O)[C@H](OC)C2)CC(=O)[C@H](C)/C=C(\C)[C@@H](O)[C@@H](OC)C(=O)[C@H](C)C[C@H](C)/C=C/C=C/C=C/1C` (stereo partly drawn) [Example I-26, (22E,24E,26E,27E,33R,34S,35R,36R,38S,40S,43S,44R,45R,54R)-44,54-dihydroxy-43-[(1R)-2-[(1S,3R,4R)-4-hydroxy-3-methoxy-cyclohexyl]-1-methyl-ethyl]-45-methoxy-42-[2-(2-methoxyethylsulfonyl)ethoxy]-33,34,35,36,46,47-hexamethyl-66,67-dioxa-55-azatricyclohexatriaconta-22,24,26(46),27(47)-tetraene-48,49,50,51,52-pentone] stands 0.1 to 1 nM.
On the same count and under the same terms, next, `COCCS(=O)(=O)CCOC1C[C@@H]2CC[C@@H](C)[C@@](O)(O2)C(=O)C(=O)N2CCCC[C@H]2C(=O)O[C@H]([C@H](C)C[C@@H]2CC[C@@H](OCCO)[C@H](OC)C2)CC(=O)[C@H](C)/C=C(\C)[C@@H](O)[C@@H](OC)C(=O)[C@H](C)C[C@H](C)/C=C/C=C/C=C/1C` (stereo partly drawn) [Example I-25, (22E,24E,26E,27E,35R,36S,37R,38R,40S,42S,45S,46R,47R,56R)-46,56-dihydroxy-45-[(1R)-2-[(1S,3R,4R)-4-(2-hydroxyethoxy)-3-methoxy-cyclohexyl]-1-methyl-ethyl]-47-methoxy-44-[2-(2-methoxyethylsulfonyl)ethoxy]-35,36,37,38,48,49-hexamethyl-68,69-dioxa-57-azatricyclohexatriaconta-22,24,26(48),27(49)-tetraene-50,51,52,53,54-pentone]: 0.1 to 1 nM; `CO[C@@H]1C[C@H](C[C@@H](C)[C@@H]2CC(=O)[C@H](C)/C=C(\C)[C@@H](O)[C@@H](OC)C(=O)[C@H](C)C[C@H](C)/C=C/C=C/C=C(\C)C(OCCCCCO)C[C@@H]3CC[C@@H](C)[C@@](O)(O3)C(=O)C(=O)N3CCCC[C@H]3C(=O)O2)CC[C@H]1O` (stereo partly drawn) [Example I-34, (21E,23E,25E,26E,33R,34S,35R,36R,38S,40S,43S,44R,45R,54R)-44,54-dihydroxy-43-[(1R)-2-[(1S,3R,4R)-4-hydroxy-3-methoxy-cyclohexyl]-1-methyl-ethyl]-42-(5-hydroxypentoxy)-45-methoxy-33,34,35,36,46,47-hexamethyl-65,66-dioxa-55-azatricyclohexatriaconta-21,23,25(46),26(47)-tetraene-48,49,50,51,52-pentone]: 0.1 to 1 nM; `COc1ccc([C@@H]2C[C@@H]3CC[C@@H](C)[C@@](O)(O3)C(=O)C(=O)N3CCCC[C@H]3C(=O)O[C@H]([C@H](C)C[C@@H]3CC[C@@H](O)[C@H](OC)C3)CC(=O)[C@H](C)/C=C(\C)[C@H](O)[C@@H](OC)C(=O)[C@H](C)C[C@H](C)/C=C/C=C/C=C/2C)c(OC)c1` [Example I-37, (26E,28E,30E,31E,36R,37S,38R,39R,41S,43S,44R,46S,47R,48R,57R)-44-(2,4-dimethoxyphenyl)-47,57-dihydroxy-46-[(1R)-2-[(1S,3R,4R)-4-hydroxy-3-methoxy-cyclohexyl]-1-methyl-ethyl]-48-methoxy-36,37,38,39,49,50-hexamethyl-67,68-dioxa-58-azatricyclohexatriaconta-26,28,30(49),31(50)-tetraene-51,52,53,54,55-pentone]: not below 100 nM.
Consider `COc1ccc([C@H]2C[C@@H]3CC[C@@H](C)[C@@](O)(O3)C(=O)C(=O)N3CCCC[C@H]3C(=O)O[C@H]([C@H](C)C[C@@H]3CC[C@@H](O)[C@H](OC)C3)CC(=O)[C@H](C)/C=C(\C)[C@H](O)[C@@H](OC)C(=O)[C@H](C)C[C@H](C)/C=C/C=C/C=C/2C)c(OC)c1` [Example I-38, (26E,28E,30E,31E,36R,37S,38R,39R,41S,43S,44S,46S,47R,48R,57R)-44-(2,4-dimethoxyphenyl)-47,57-dihydroxy-46-[(1R)-2-[(1S,3R,4R)-4-hydroxy-3-methoxy-cyclohexyl]-1-methyl-ethyl]-48-methoxy-36,37,38,39,49,50-hexamethyl-67,68-dioxa-58-azatricyclohexatriaconta-26,28,30(49),31(50)-tetraene-51,52,53,54,55-pentone], for which the IC50 fell in the range of 10 to 100 nM.

The next test concerns pS6K1 T389 in PC3 cells (mTORC1 pathway). Kind of test: Western blot based pS6K1 assay (mTORC1 pathway). Format: cell-based. The settings on record: 24 hours. As to the method:
Example 76: Western Blot Based pS6K1 and pAKT Assay at 24 and 48 Hour Timepoints
Assay Protocol: • 1. Seed six well plate with 500,000 PC3 cells per well and incubate for […]. • 2. Add compounds into the cell plate. Incubate for 24 to 48 hours. • 4. Plate is placed on ice and the media is removed via aspiration. The wells are washed with 1 mL of 1×PBS and then fully aspirated. • 5. 110 μL of 1% Triton Lysis Buffer is added and each well is scraped vigorously. • 6. Cell homogenates are transferred to 1.5 mL eppendorf tubes on ice and spun down at 4° C. for 10 minutes at 10,000 rpm. • 7. Protein concentration of resulting cell lysates were quantified utilizing a Bradford assay and the samples run analyzed via Western blot on 4-12% Bis/Tris gels with 1×MES buffer. • 8. The gels were transferred onto membranes at 50V for 100 minutes, blocked with Odyssey Blocking buffer for 30 minutes then incubated overnight with primary antibody (pS6K1 T389 Rabbit or pAkt S473 Rabbit) overnight at 4° C. on a rotator. • 9. The membranes were washed 3× with TBS-T with a 5 minute incubation between each wash then incubated with secondary antibody (LiCor IRDye 800 Donkey Anti Rabbit) for at least 30 minutes. • 10. The membranes were washed 3× with TBS-T with a 5 minute incubation between each wash. • 11. The gels were then incubated for 5 minutes with PBS at room temperature then imaged using a Li-Cor.
PC3 cells were treated with everolimus (0.1 μM, 0.01 μM, and 0.001 μM) or I-9 ([…], 0.1 μM, 0.01 μM, and 0.001 μM) for 24 hours.
The methods employed were substantially similar to those described above. Compounds were evaluated in PC3 cells. Additional cell lines that may be used include Jurkat cells, wild-type mouse embryotic fibroblast (MEF) cells, tuberous sclerosis 2 (TSC2) negative (TSC−/−) MEF cells, and tuberous sclerosis 2 (TSC2) positive (TSC+/+) MEF cells. Cells are incubated with compounds of the present invention for various time periods (e.g., 5 minutes, 15 minutes, 30 minutes, 90 minutes, 24 hours, or 48 hours), and evaluated according to known methodologies, such as those herein described.
For orientation: Immunoblotting shows a protein as a band on a membrane.
On to `CO[C@@H]1C[C@H](C[C@@H](C)[C@@H]2CC(=O)[C@H](C)/C=C(\C)[C@@H](O)[C@@H](OC)C(=O)[C@H](C)C[C@H](C)/C=C/C=C/C=C(\C)[C@@H](OCCC3CCNC3=O)C[C@@H]3CC[C@@H](C)[C@@](O)(O3)C(=O)C(=O)N3CCCC[C@H]3C(=O)O2)CC[C@H]1OCCO` (stereo partly drawn) [Example I-3, (23E,25E,27E,28E,34R,35S,36R,37R,39S,42S,44S,45S,46R,47R,57R)-46,57-dihydroxy-45-[(1R)-2-[(1S,3R,4R)-4-(2-hydroxyethoxy)-3-methoxy-cyclohexyl]-1-methyl-ethyl]-47-methoxy-34,35,36,37,48,49-hexamethyl-44-[2-(2-oxopyrrolidin-3-yl)ethoxy]-69,70-dioxa-59-azatricyclohexatriaconta-23,25,27(48),28(49)-tetraene-50,51,53,54,55-pentone], for which the “inhibition of the mTORC1 pathway (pS6K1, Western blot)” value is “strong inhibition”.
On the same count and under the same terms, under `CO[C@@H]1C[C@H](C[C@@H](C)[C@@H]2CC(=O)[C@H](C)/C=C(\C)[C@@H](O)[C@@H](OC)C(=O)[C@H](C)C[C@H](C)/C=C/C=C/C=C(\C)[C@@H](OCCS(=O)(=O)CCS(=O)(=O)CCO)C[C@@H]3CC[C@@H](C)[C@@](O)(O3)C(=O)C(=O)N3CCCC[C@H]3C(=O)O2)CC[C@H]1O` [Example I-65, (21E,23E,25E,26E,34R,35S,36R,37R,39S,41S,43S,44S,45R,46R,55R)-45,55-dihydroxy-43-[2-[2-(2-hydroxyethylsulfonyl)ethylsulfonyl]ethoxy]-44-[(1R)-2-[(1S,3R,4R)-4-hydroxy-3-methoxy-cyclohexyl]-1-methyl-ethyl]-46-methoxy-34,35,36,37,47,48-hexamethyl-70,71-dioxa-56-azatricyclohexatriaconta-21,23,25(47),26(48)-tetraene-49,50,51,52,53-pentone] stands “strong inhibition”; under `CO[C@@H]1C[C@H](C[C@@H](C)[C@@H]2CC(=O)[C@H](C)/C=C(\C)[C@@H](O)[C@@H](OC)C(=O)[C@H](C)C[C@H](C)/C=C/C=C/C=C(\C)[C@@H](OCCCC3CCNC3=O)C[C@@H]3CC[C@@H](C)[C@@](O)(O3)C(=O)C(=O)N3CCCC[C@H]3C(=O)O2)CC[C@H]1OCCO` (stereo partly drawn) [Example I-15, (23E,25E,27E,28E,35R,36S,37R,38R,40S,43S,45S,46S,47R,48R,58R)-47,58-dihydroxy-46-[(1R)-2-[(1S,3R,4R)-4-(2-hydroxyethoxy)-3-methoxy-cyclohexyl]-1-methyl-ethyl]-48-methoxy-35,36,37,38,49,50-hexamethyl-45-[3-(2-oxopyrrolidin-3-yl)propoxy]-70,71-dioxa-60-azatricyclohexatriaconta-23,25,27(49),28(50)-tetraene-51,52,54,55,56-pentone], “strong inhibition”.

One may read the IC50 as the midpoint of a concentration-inhibition curve.
